Results published in PubChem BioAssay (NCI).
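Protocol summary: plate cells (96-well), add compound at 5 concentrations, incubate 48 h, interpolate endpoints linearly. TGI: concentration producing complete growth inhibition.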

Legend:
Experiment in all cases: NCI anticancer screen, dose series, 48 h
[1] = system: 786-0 renal
[2] = system: A549 NSCLC
[3] = system: ACHN renal
[4] = system: CAKI-1 renal
[5] = system: CCRF-CEM leukemia
[6] = system: COLO 205 colon
[7] = system: DLD-1 colon
[8] = system: DMS 114 small cell lung
[9] = system: DMS 273 small cell lung
[10] = system: EKVX NSCLC
[11] = system: HCC-2998 colon
[12] = system: HCT-116 colon
[13] = system: HCT-15 colon
[14] = system: HL-60(TB) leukemia
[15] = system: HOP-62 NSCLC
[16] = system: HOP-92 NSCLC
[17] = system: HT29 colon
[18] = system: IGROV1 ovarian
[19] = system: K-562 leukemia
[20] = system: KM12 colon
[21] = system: KM20L2 colon
[22] = system: LOX IMVI melanoma
[23] = system: LXFL 529 NSCLC
[24] = system: M19-MEL melanoma
[25] = system: MALME-3M melanoma
[26] = system: MOLT-4 leukemia
[27] = system: NCI-H226 lung
[28] = system: NCI-H23 lung
[29] = system: NCI-H460 lung
[30] = system: NCI-H522 lung
[31] = system: OVCAR-3 ovarian
[32] = system: OVCAR-5 ovarian
[33] = system: OVCAR-8 ovarian
[34] = system: RPMI-8226 leukemia
[35] = system: RXF 393 renal
[36] = system: SF-268 CNS
[37] = system: SF-295 CNS
[38] = system: SF-539 CNS
[39] = system: SK-MEL-2 melanoma
[40] = system: SK-MEL-28 melanoma
[41] = system: SK-MEL-5 melanoma
[42] = system: SK-OV-3 ovarian
[43] = system: SN12C renal
[44] = system: SNB-19 CNS
[45] = system: SR leukemia
[46] = system: SW-620 colon
[47] = system: TK-10 renal
[48] = system: U251 CNS
[49] = system: UACC-257 melanoma
[50] = system: UACC-62 melanoma
[51] = system: XF 498 CNS
[52] = system: A498 renal
[53] = system: HOP-18 NSCLC
[54] = system: M14 melanoma
[55] = system: OVCAR-4 ovarian
[56] = system: SNB-75 CNS
[57] = system: SNB-78 CNS
[58] = system: UO-31 renal

With Cn1c(C2CC(C)(C)c3c2c2ccccc2n3C)cc2ccccc21 (stereo not drawn) the TGI [1] was over 304 µM, the TGI [2] was over 304 µM and the TGI [3] was over 304 µM. The TGI [4] was over 304 µM, the TGI [5] was over 304 µM and the TGI [6] was over 304 µM. It also gave a TGI [7] of over 304 µM, a TGI [8] of over 304 µM and a TGI [9] of over 304 µM. For the same molecule, the TGI [10] was over 304 µM, the TGI [11] was over 304 µM and the TGI [12] was over 304 µM. It also gave a TGI [13] of over 304 µM, a TGI [14] of over 304 µM and a TGI [15] of over 304 µM. It also gave a TGI [16] of over 304 µM, a TGI [17] of over 304 µM and a TGI [18] of over 304 µM. For the same molecule, the TGI [19] was over 304 µM, the TGI [20] was over 304 µM and the TGI [21] was over 304 µM. The TGI [22] was over 304 µM, the TGI [23] was over 304 µM and the TGI [24] was over 304 µM. It also gave a TGI [25] of over 304 µM, a TGI [26] of over 304 µM and a TGI [27] of over 304 µM. For the same molecule, the TGI [28] was over 304 µM, the TGI [29] was over 304 µM and the TGI [30] was over 304 µM. The TGI [31] was over 304 µM, the TGI [32] was over 304 µM and the TGI [33] was over 304 µM. The TGI [34] was over 304 µM, the TGI [35] was over 304 µM and the TGI [36] was over 304 µM. It also gave a TGI [37] of over 304 µM, a TGI [38] of over 304 µM and a TGI [39] of over 304 µM. For the same molecule, the TGI [40] was over 304 µM, the TGI [41] was over 304 µM and the TGI [42] was over 304 µM. For the same molecule, the TGI [43] was over 304 µM, the TGI [44] was over 304 µM and the TGI [45] was over 304 µM. For the same molecule, the TGI [46] was over 304 µM, the TGI [47] was over 304 µM and the TGI [48] was over 304 µM. For the same molecule, the TGI [49] was over 304 µM, the TGI [50] was over 304 µM and the TGI [51] was over 304 µM.

With COC(=O)c1c/c(=N\NC(=O)CC(=O)Nc2ccc(C)cc2)c2ccccc2o1 the TGI [1] was over 100 µM, the TGI [52] was over 100 µM and the TGI [2] was over 100 µM. It also gave a TGI [3] of over 100 µM, a TGI [4] of over 100 µM and a TGI [5] of over 100 µM. The TGI [6] was over 100 µM, the TGI [7] was over 100 µM and the TGI [8] was over 100 µM. It also gave a TGI [9] of over 100 µM, a TGI [10] of over 100 µM and a TGI [12] of over 100 µM. It also gave a TGI [13] of over 100 µM, a TGI [14] of over 100 µM and a TGI [53] of over 100 µM. The TGI [15] was over 100 µM, the TGI [16] was over 100 µM and the TGI [17] was over 100 µM. It also gave a TGI [18] of over 100 µM, a TGI [19] of over 100 µM and a TGI [20] of over 100 µM. For the same molecule, the TGI [21] was over 100 µM, the TGI [22] was over 100 µM and the TGI [23] was over 100 µM. For the same molecule, the TGI [54] was over 100 µM, the TGI [24] was over 100 µM and the TGI [25] was over 100 µM. The TGI [26] was over 100 µM, the TGI [27] was over 100 µM and the TGI [28] was over 100 µM. For the same molecule, the TGI [29] was over 100 µM, the TGI [30] was over 100 µM and the TGI [31] was over 100 µM. It also gave a TGI [55] of over 100 µM, a TGI [32] of over 100 µM and a TGI [33] of over 100 µM. The TGI [34] was over 100 µM, the TGI [35] was over 100 µM and the TGI [36] was over 100 µM. For the same molecule, the TGI [37] was over 100 µM, the TGI [38] was over 100 µM and the TGI [39] was over 100 µM. The TGI [40] was over 100 µM, the TGI [41] was over 100 µM and the TGI [42] was over 100 µM. The TGI [43] was over 100 µM, the TGI [44] was over 100 µM and the TGI [56] was over 100 µM. It also gave a TGI [57] of over 100 µM, a TGI [45] of over 100 µM and a TGI [46] of over 100 µM. The TGI [47] was over 100 µM, the TGI [48] was over 100 µM and the TGI [49] was over 100 µM. It also gave a TGI [50] of over 100 µM, a TGI [58] of over 100 µM and a TGI [51] of over 100 µM.
